The values that follow come from patent publication US20080233159A1, “Home-use insecticide” (priority 2007, published 2008).

A value given as a limit tells only on which side of the number the result lay.

The subject of one series is house flies. The following applies: microdrop method, prallethrin isomers, d/d-trans isomer = 100; cited from earlier work.
Series [1] deals with adult male American cockroaches. Nature of the series: Turntable method, test aerosols. The class given is in vivo. The following applies: 0.35 g/300 ml aerosol; for KT50 value: 1 second spray, 5 minutes exposure. The source says: (2-a) Turntable Method: A glass cylinder having an inner diameter of 20 cm and height of 43 cm was placed on a wooden stand and a glass pot (outer diameter: 15 cm, height: 15 cm) containing two adult male American cockroaches was attached directly beneath the cylinder by using a glass plate as a shutter. Test aerosol insecticides prepared in accordance with Example 1 were sprayed into the glass cylinder for 1 second. Five seconds later, the glass plate shutter was pulled out and the test cockroaches were exposed to the descending aerosol particles for 5 minutes. The range of times until the occurrence of knockdown and the approximate average times were determined followed by observation of mortality 24 hours later. This test was repeated six times.

In another series the test system is American cockroaches. Kind of series: Residual contact method, test aerosols on decorative sheet. The class given is in vivo. The settings on record: for Mortality after 72 hours, After 1 day of spray: 0.35 g/300 ml aerosol at 25 mL/m^2, 2 hours contact 1 day after spraying. On the procedure: (2-b) Residual Contact Method: The test aerosols were sprayed onto a decorative sheet measuring 20 cm on a side at the rate of 25 mL/m^2. After 1 day of spraying, a glass ring measuring 12 cm in diameter was placed on the decorative sheet and five American cockroaches were contacted with the sheet for 2 hours inside the ring at 1, 7, 15 and 21 days after spraying followed by observation of mortality 72 hours later.

A short description of series [2]: Solubility / compatibility with kerosene. The class given is physicochemical.
The next series deals with female house flies. Nature of the series: Comparative efficacy test by the microdrop method, subject compound and its seven other isomers. In kind it is in vivo. The settings on record: for Insecticidal Efficacy Relative efficacy ratio: subject compound = 100. How it is done:
2-Methyl-4-oxo-3-(2-propynyl)-2-cyclopenten-1-yl 2,2-dimethyl-3-(2,2-dichlorovinyl)cyclopropanecarboxylate has a total of eight isomers based on two asymmetric carbon atoms of the acid portion and one asymmetric carbon atom of the alcohol portion. Therefore, a comparative efficacy test was conducted on female house flies using the microdrop method for the subject compound and the other seven isomers.

For series [3], the system named is House flies (female adults). Kind of series: Glass chamber method, test aerosols. The class given is in vivo. The settings on record: for Mortality: 10 minutes exposure, kill rate after additional 24 hours; for KT50 value: glass chamber 0.216 m^3, 1 second spray. On the procedure:
Glass chamber method: test aerosol insecticides prepared in accordance with Example 1 were sprayed for 1 second in a glass chamber having a volume of 60×60×60 cm (0.216 m^3). House flies (in groups of about 25 female adults each) were released into the chamber 10 seconds later, and the numbers of test […] that fell to the ground and rolled over during 10 minutes of exposure were recorded over the course of time to determine the KT50 values followed by observation of the kill rate after an additional 24 hours.

Turning to “2-Methyl-4-oxo-3-(2-propynyl)-2-cyclopenten-1-yl 2,2-dimethyl-3-(2,2-dichlorovinyl)cyclopropanecarboxylate [Compound 2]”, in the series on house flies, the Relative efficacy ratio is 39.
With `C#CCN1CC(=O)N(COC(=O)[C@@H]2C(C=C(C)C)C2(C)C)C1=O` (mixture of isomers) [Imiprothrin, imiprothrin, reference compound], in series [1], the “Mortality after 24 hours” value is on record as 83% and the KT50 value turned out to be 51 s. Further, in the series on American cockroaches, the “Mortality after 72 hours, After 1 day of spray” value was 0%. For the same molecule, the “Solubility in / compatibility with kerosene” value in series [2] is given as “extremely poor solubility in kerosene”.
Take `C#CCC1=C(C)C(OC(=O)[C@H]2[C@H](C=C(Cl)Cl)C2(C)C)CC1=O` (relative stereo) [Compound 1, (d)-2-methyl-4-oxo-3-(2-propynyl)-2-cyclopenten-1-yl (d)-trans-2,2-dimethyl-3-(2,2-dichlorovinyl)cyclopropanecarboxylate]: in the series with female house flies, the “Insecticidal Efficacy LD50” value is 0.0263 μg/insect and the “Insecticidal Efficacy Relative efficacy ratio” value was 100. In series [3] (0.15 g/300 ml aerosol), the Mortality was 93.3% and the KT50 value came out at 73 s. Further, in series [3] (0.45 g/300 ml aerosol), the Mortality is 100% and the KT50 value worked out at 36 s. In series [1], the “Mortality after 24 hours” value is 100% and the KT50 value was found to be 102 s. Moreover, the “Mortality after 72 hours, After 1 day of spray” value in the series on American cockroaches came to 100%. For the same molecule, the “Mortality after 72 hours, After 7 days” value in the series with American cockroaches (0.35 g/300 ml aerosol at 25 mL/m^2, 2 hours contact 7 days after spraying) worked out at 100%. The “Mortality after 72 hours, After 15 days” value in the series with American cockroaches (0.35 g/300 ml aerosol at 25 mL/m^2, 2 hours contact 15 days after spraying) was determined as 100%. Moreover, the “Mortality after 72 hours, After 21 days” value in the series on American cockroaches (0.35 g/300 ml aerosol at 25 mL/m^2, 2 hours contact 21 days after spraying) turned out to be 100%. In addition, in series [2], the “Solubility in / compatibility with kerosene” value is listed as “satisfactory compatibility with solvents such as kerosene”. For the same molecule, the Relative efficacy ratio in the series with house flies is 100.
For the molecule `C#CCC1=C(C)C(OC(=O)C2C(C=C(Cl)Cl)C2(C)C)CC1=O` (stereo not drawn) [Compound 2, 2-Methyl-4-oxo-3-(2-propynyl)-2-cyclopenten-1-yl 2,2-dimethyl-3-(2,2-dichlorovinyl)cyclopropanecarboxylate], in the series on female house flies, the “Insecticidal Efficacy LD50” value is 0.0415 μg/insect and the “Insecticidal Efficacy Relative efficacy ratio” value is 63.0.
As for `C#CCC1=C(C)C(OC(=O)C2C(C=C(Cl)Cl)C2(C)C)CC1=O` (stereo not drawn) [Compound 3, 2-Methyl-4-oxo-3-(2-propynyl)-2-cyclopenten-1-yl 2,2-dimethyl-3-(2,2-dichlorovinyl)cyclopropanecarboxylate], in the series on female house flies, the “Insecticidal Efficacy LD50” value is 0.245 μg/insect and the “Insecticidal Efficacy Relative efficacy ratio” value stood at 11.0. Further, the Relative efficacy ratio in the series with house flies is given as 17.
As for `C#CCC1=C(C)C(OC(=O)C2C(C=C(Cl)Cl)C2(C)C)CC1=O` (stereo not drawn) [Compound 4, 2-Methyl-4-oxo-3-(2-propynyl)-2-cyclopenten-1-yl 2,2-dimethyl-3-(2,2-dichlorovinyl)cyclopropanecarboxylate], in the series on female house flies, the “Insecticidal Efficacy LD50” value was 0.376 μg/insect and the “Insecticidal Efficacy Relative efficacy ratio” value was 7.0. Further, in the series on house flies, the Relative efficacy ratio is reported as 13.
As to `C#CCC1=C(C)C(OC(=O)C2C(C=C(Cl)Cl)C2(C)C)CC1=O` (stereo not drawn) [Compound 5, 2-Methyl-4-oxo-3-(2-propynyl)-2-cyclopenten-1-yl 2,2-dimethyl-3-(2,2-dichlorovinyl)cyclopropanecarboxylate], in the series on female house flies, the “Insecticidal Efficacy LD50” value is 0.337 μg/insect and the “Insecticidal Efficacy Relative efficacy ratio” value came to 7.8. Further, the Relative efficacy ratio with house flies was 1.3.
`C#CCC1=C(C)C(OC(=O)C2C(C=C(Cl)Cl)C2(C)C)CC1=O` (stereo not drawn) [Compound 6, 2-Methyl-4-oxo-3-(2-propynyl)-2-cyclopenten-1-yl 2,2-dimethyl-3-(2,2-dichlorovinyl)cyclopropanecarboxylate]: in the series with female house flies, the “Insecticidal Efficacy LD50” value amounted to 0.526 μg/insect and the “Insecticidal Efficacy Relative efficacy ratio” value turned out to be 5.0. Moreover, the Relative efficacy ratio with house flies is 0.4.
As to `C#CCC1=C(C)C(OC(=O)C2C(C=C(Cl)Cl)C2(C)C)CC1=O` (stereo not drawn) [Compound 7, 2-Methyl-4-oxo-3-(2-propynyl)-2-cyclopenten-1-yl 2,2-dimethyl-3-(2,2-dichlorovinyl)cyclopropanecarboxylate], in the series on female house flies, the “Insecticidal Efficacy LD50” value was found to be 3.29 μg/insect and the “Insecticidal Efficacy Relative efficacy ratio” value is given as 0.8. Further, the Relative efficacy ratio with house flies is 0.2.
Consider `C#CCC1=C(C)C(OC(=O)C2C(C=C(Cl)Cl)C2(C)C)CC1=O` (stereo not drawn) [Compound 8, 2-Methyl-4-oxo-3-(2-propynyl)-2-cyclopenten-1-yl 2,2-dimethyl-3-(2,2-dichlorovinyl)cyclopropanecarboxylate], for which, in the series with female house flies, the “Insecticidal Efficacy LD50” value worked out at 5.30 μg/insect and the “Insecticidal Efficacy Relative efficacy ratio” value is 0.5. Besides, the Relative efficacy ratio in the series on house flies was 0.2.
In series [3] (0.15 g/300 ml aerosol), d-T80-phthalthrin [reference compound] gave a Mortality of 20.0% and a KT50 value of 204 s. Further, in series [3] (0.45 g/300 ml aerosol), the Mortality came to 39.2% and the KT50 value is 73 s. Moreover, in series [1], the “Mortality after 24 hours” value was 33% and the KT50 value is over 300 s.
